What was measured:
Assay type in all cases: in vivo, C57BL/6 mice
[1] = tested on: Mouse Model of CALD (ORN06 oropharyngeal aspiration); test: Total cells in BALF, ORN06 mouse model of CALD; details: i.p. at 24 and 48 hours after ORN06 insult (DANA 10 mg/kg, AMPCA 0.1 mg/kg); BALF at day 3; FIG. 1
[2] = tested on: Mouse Model of CALD (ORN06 oropharyngeal aspiration); test: BALF cell types by Wright-Giemsa staining, ORN06 mouse model of CALD; details: for ORN06-induced increase in the number of monocyte/macrophages in the BALF / counts of specific cell types in the BALF, treated groups versus Control group: i.p. at 24 and 48 hours after ORN06 (DANA 10 mg/kg, AMPCA 0.1 mg/kg); for ORN06-induced increase in the number of monocyte/macrophages in the BALF: day 3, FIG. 2A; for counts of specific cell types in the BALF, treated groups versus Control group: day 3, FIG. 2A-C
Method: (§1) To determine if DANA or AMPCA affect CALD symptoms in mice, 5 week old 20 g male and female C57BL/6 mice (#000664; Jackson Laboratories, Bar Harbor, ME) were given an oropharyngeal aspiration of 1 mg/kg (20 μg/mouse) ORN06/LyoVec (LyoVec protects the ssRNA from degradation and facilitates cellular uptake) (InvivoGen, San Diego, CA) in 50 μl phosphate-buffered saline (PBS) to induce symptoms of pulmonary inflammation, or an oropharyngeal aspiration of an equal volume of PBS as a control, following Current protocols in mouse biology 2, 167-175 (2012). At 24 and 48 hours after ORN06 insult, some of ORN06-treated mice were given intraperitoneal injections of 100 μl PBS, or 10 mg/kg of DANA (N-Acetyl-2,3-dehydro-2-deoxyneuraminic acid; #252926-10MG, EMD, Millipore, Burlington, MA) or 0.1 mg/kg of 2-piperidinecarboxylic acid, 4-amino-1-methyl (AMPCA, #A00285-13785-026, Sundia, Shanghai, China) in 100 μl PBS. The DANA was dissolved in water to 2.5 mg/ml, and then diluted in PBS The AMPCA was dissolved directly in PBS. At day 3, mice were euthanized by CO2 inhalation, and BALF was obtained as previously described in Current protocols in mouse biology 2, 167-175 (2012); Proceedings of the National Academy of Sciences of the United States of America 112, 8385-8390 (2015); Public Library of Science ONE 9, e93730 (2014); and Nature Scientific Reports 8; 7 (1):15069 (2017). The experiment was performed in accordance with the recommendations in the Guide for the Care and use of Laboratory Animals of the National Institutes of Health. The Texas A&M University Animal Use and Care Committee approved the protocol.
Total cells in the BALF were then quantified. The BALF cells were processed to prepare cell spots as described previously in Public Library of Science ONE 9, e93730 (2014), Nature Scientific Reports 8; 7 (1):15069 (2017); American Journal of Physiology Lung Cellular and Molecular Physiology, 1; 318 (1):L165-L179 (2020). After air drying for 48 hours at room temperature, some of the prepared BALF cell spots were fixed and treated with Wright-Giemsa stain (#08711, Polysciences, Inc., Warrington, PA) following the manufacturer's instructions. One hundred and fifty cells per mouse were examined and quantified for cell type following the manufacturer's instructions. Imaging of BALF cell spots stained with Wright-Giemsa stain was done with a Nikon Eclipse Ti2 microscope.

[3] = tested on: Mouse Model of CALD (ORN06 oropharyngeal aspiration); test: BALF cell types by immunochemistry on cell spots, ORN06 mouse model of CALD; details: i.p. at 24 and 48 hours after ORN06 (DANA 10 mg/kg, AMPCA 0.1 mg/kg), day 3, FIG. 3
Method: as §1
Immunochemistry on BALF cell spots and counts of cells was performed as described previously in Public Library of Science ONE 9, e93730 (2014); Proceedings of the National Academy of Sciences of the United States of America 112, 8385-8390 (2015); Nature Scientific Reports 8; 7 (1):15069 (2017); American Journal of Physiology Lung Cellular and Molecular Physiology, 1; 318 (1)1,165-L179 (2020) using anti-CD3 (100202, clone 17A2, BioLegend, San Diego, CA) to detect T-cells, anti-CD11b (101202, clone M1/70, BioLegend) to detect blood and inflammatory macrophages, anti-CD11c (M100-3, clone 223H7, MBL International, Woburn, MA) to detect alveolar macrophages and dendritic cells, anti-CD45 (103102, clone 30-F11, BioLegend) for total leukocytes, anti-Ly6G (127602, clone 1A8, BioLegend) to detect neutrophils, with isotype-matched irrelevant rat antibodies diluted to 5 μg/ml in PBS containing 2% (w:v) bovine serum albumin (PBS-BSA) (VWR, Radnor, PA). Cells were then incubated in coplin jars containing PBS, with 6 changes of buffer over 30 minutes. […] Using a 40× objective, at least 100 cells from each stained BALF spot were examined and the percent positive cells was recorded.

[4] = tested on: Mouse Model of CALD (ORN06 oropharyngeal aspiration); test: Clot-like aggregates in BALF cell spots, ORN06 mouse model of CALD; details: male mice; irregularly shaped 2-10 μm object staining dark blue with Wright-Giemsa; i.p. at 24 and 48 hours after ORN06 (DANA 10 mg/kg, AMPCA 0.1 mg/kg); day 3; FIG. 4
[5] = tested on: Mouse Model of CALD (ORN06 oropharyngeal aspiration); test: Alveolar wall thickness in H&E-stained lung cryosections, ORN06 mouse model of CALD; details: i.p. at 24 and 48 hours after ORN06 (DANA 10 mg/kg, AMPCA 0.1 mg/kg), day 3, FIGS. 5 and 6
Method: (§2) To determine if DANA or AMPCA affect CALD symptoms in mice, 5 week old 20 g male and female C57BL/6 mice (#000664; Jackson Laboratories, Bar Harbor, ME) were given an oropharyngeal aspiration of 1 mg/kg (20 μg/mouse) ORN06/LyoVec (LyoVec protects the ssRNA from degradation and facilitates cellular uptake) (InvivoGen, San Diego, CA) in 50 μl phosphate-buffered saline (PBS) to induce symptoms of pulmonary inflammation, or an oropharyngeal aspiration of an equal volume of PBS as a control, following Current protocols in mouse biology 2, 167-175 (2012). At 24 and 48 hours after ORN06 insult, some of ORN06-treated mice were given intraperitoneal injections of 100 μl PBS, or 10 mg/kg of DANA (N-Acetyl-2,3-dehydro-2-deoxyneuraminic acid; #252926-10MG, EMD, Millipore, Burlington, MA) or 0.1 mg/kg of 2-piperidinecarboxylic acid, 4-amino-1-methyl (AMPCA, #A00285-13785-026, Sundia, Shanghai, China) in 100 μl PBS. […]
(§3) After collecting BALF, the lungs from the mice were harvested and inflated with Surgipath frozen section compound (#3801480, Leica, Buffalo Grove, IL) and preserved at −80° C. […] Image quantification was done using Image J (NIH, Bethesda, MD). […] Using ‘ Straight’ command, the length of the alveolar wall on the image was measured and was recorded with the ‘Measure’ command. 8 measurements of the alveolar wall thickness were recorded for each image. […]

[6] = tested on: Mouse Model of CALD (ORN06 oropharyngeal aspiration); test: Percent of exudate-containing alveoli in lung cryosections, ORN06 mouse model of CALD; details: male mice, i.p. at 24 and 48 hours after ORN06 (DANA 10 mg/kg, AMPCA 0.1 mg/kg), day 3, FIG. 7
Method: as §2, §3

[7] = tested on: Mouse Model of CALD (ORN06 oropharyngeal aspiration); test: Percentage of alveolar airspace area occupied by exudate, ORN06 mouse model of CALD; details: lung cryosections; i.p. at 24 and 48 hours after ORN06 (DANA 10 mg/kg, AMPCA 0.1 mg/kg); day 3; FIG. 8
Method: To determine if DANA or AMPCA affect CALD symptoms in mice, 5 week old 20 g male and female C57BL/6 mice (#000664; Jackson Laboratories, Bar Harbor, ME) were given an oropharyngeal aspiration of 1 mg/kg (20 μg/mouse) ORN06/LyoVec (LyoVec protects the ssRNA from degradation and facilitates cellular uptake) (InvivoGen, San Diego, CA) in 50 μl phosphate-buffered saline (PBS) to induce symptoms of pulmonary inflammation, or an oropharyngeal aspiration of an equal volume of PBS as a control, following Current protocols in mouse biology 2, 167-175 (2012). […]
as §3
Using the Threshold function and the Measure Tool in NIH ImageJ, the percent area of each 20× objective image of lung cryosections described above containing tissue (not counting pale pink exudates) was measured, and this percentage was subtracted from 100% to obtain the percent area of the image occupied by the alveolar airspace. […]

[8] = tested on: Mouse Model of COVID-19-Like Cytokine Storm (ORN06); test: Serum cytokine levels (LEGENDplex Mouse Inflammation Panel), ORN06 mouse model; details: AMPCA 0.1 mg/kg i.p. at 24 and 48 hours after ORN06, serum at day 3
Method: as §1
Serum samples collected at day 3 post control or ORN06 insult were processed following the manufacturer's protocol. (#740150, LEGENDplex Mouse Inflammation Panel (13-plex), Biolegend, San Diego, CA) for simultaneous quantification of mouse cytokines using an Accuri C6 (BD Bioscience, Franklin Lakes, NJ) flow cytometer.

Structure (SMILES) | ORN06-induced increase in the number of cells in the BALF [1] | number of cells in the BALF, treated groups versus Control group [1] | ORN06-induced increase in the number of lymphocytes in the BALF ([2]; AMPCA 0.1 mg/kg i.p. at 24 and 48 hours after ORN06, day 3, FIG. 2B) | ORN06-induced increase in the number of monocyte/macrophages in the BALF [2] | counts of specific cell types in the BALF, treated groups versus Control group [2] | ORN06-induced increase in the number of CD11c positive macrophages and/or dendritic cells in the BALF [3] | ORN06-induced increase in the number of CD45-positive leukocytes in the BALF [3] | clot-like aggregates in the BAL cell spots [4] | ORN06-induced alveolar wall thickness increase [5] | percentage of exudate-containing alveoli [6] | percentage of the alveolar airspace area occupied by exudate [7] | serum levels of IL-1β ([8]; FIG. 9A) | serum levels of IL-6 ([8]; FIG. 9B) | serum levels of IL-12p70 ([8]; FIG. 9C) | serum levels of IL-23 ([8]; FIG. 9D) | serum levels of IL-27 ([8]; FIG. 9E)
CN1CCC(N)CC1C(=O)O (centres unmarked) [AMPCA, 4-amino-1-methyl-2-piperidine carboxylic acid] | ameliorated the ORN06-induced increase in the number of cells in the BALF | no significant difference | decreased the ORN06-induced increase in the number of monocyte/macrophages and lymphocytes | decreased the ORN06-induced increase in the number of monocyte/macrophages | no significant difference | decreased the ORN06-induced increase in the number of CD11c positive macrophages and/or dendritic cells | decreased the ORN06-induced increase | No clot-like aggregates were observed | significantly reduced | decreased the percentage of exudate-containing alveoli | decreased the percentage of the alveolar airspace area occupied by exudate | decreased the serum levels of both cytokines | decreased the serum levels of both cytokines | decreased the serum levels of IL-12p70 | decreased the serum levels | decreased the serum levels
CC(=O)N[C@H]1[C@H]([C@H](O)[C@H](O)CO)OC(C(=O)O)=C[C@@H]1O [DANA, 2-deoxy-2,3-didehydro-N-acetylneuraminic acid] | ameliorated the ORN06-induced increase in the number of cells in the BALF | no significant difference |  | decreased the ORN06-induced increase in the number of monocyte/macrophages | no significant difference | decreased the ORN06-induced increase in the number of CD11c positive macrophages and/or dendritic cells | decreased the ORN06-induced increase | no clot-like aggregates were observed in the BAL cell spots from 2 of the 3 | significantly reduced | decreased the percentage of exudate-containing alveoli | decreased the percentage of the alveolar airspace area occupied by exudate |  |  |  |  | 
